From US8481725B2, “Cycloalkylcarbonylamino acid derivative and process for producing the same” (Seikagaku Corporation, priority 2006, dated 2013)
Starred links: 1 amine or outer side, 2 acyl side, 3 side chain; linkers in the order of their positions; H or OH if unused. Non-standard residues stand in square brackets, D forms with d. Residues, ends and D or L forms follow the SMILES beside them. *: point of attachment. Ac6c = NC1(C(=O)O)CCCCC1; Morpholide = C1CN(*)CCO1; Nle = CCCC[C@H](N)C(=O)O; Cbz = O=C(OCc1ccccc1)*; CO = O=C([*:1])[*:2]

What was measured:
Format in all cases: biochemical
Human cathepsin L = target: T1, Human cathepsin L (Homo sapiens, UniProt P07711); test: Measurement of cathepsin L inhibitory activity (fluorescent substrate Z-Phe-Arg-MCA); conditions: for IC50: pH 5.5, 30° C., 30 minutes; for L/K (ratio of IC50 cathepsin L to IC50 cathepsin K): selectivity ratio L/K
T1 construct: purchased Calbiochem Corp
Protocol: (§1) Human cathepsin L (Calbiochem Corp.) was used for measurement. Activity was measured based on decomposition of the fluorescent substrate Z-Phe-Arg-MCA (Peptide Institute, Inc.) in compliance with the method of Barrett, et al.^3). Namely, the decomposition of […] Z-Phe-Arg-MCA by cathepsin L was measured in 100 mM sodium acetate, 5 mM EDTA, 4 mM urea, 8 mM cysteine and 0.005% Brij35 at pH 5.5. The reaction was carried out for 30 minutes at 30° C., and stopped by the addition of 2×10^−5 M Calpeptin. After stopping the reaction, fluorescent intensity was measured at an excitation wavelength of 355 nm and measurement wavelength of 460 nm. Inhibition of cathepsin L by the compounds was examined using the reaction system described above.

Cathepsin K = target: T2, Cathepsin K (Oryctolagus cuniculus, UniProt P43236); test: Measurement of cathepsin K inhibitory activity (fluorescent substrate Z-Gly-Pro-Arg-MCA); conditions: pH 6.0, 37° C., 30 minutes
T2 construct: Active enzyme was produced by expressing cathepsin K in the form of a proenzyme; made in house; host or cells: Sf21 insect cells (baculovirus expression system)
T2 sequence (P43236 115-329): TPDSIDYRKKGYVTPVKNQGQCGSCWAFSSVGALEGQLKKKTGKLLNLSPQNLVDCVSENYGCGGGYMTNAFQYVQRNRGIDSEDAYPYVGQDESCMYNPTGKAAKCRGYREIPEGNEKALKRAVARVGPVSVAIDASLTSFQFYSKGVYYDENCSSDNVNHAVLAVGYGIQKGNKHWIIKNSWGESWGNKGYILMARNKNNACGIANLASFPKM
Protocol: Active enzyme was produced by expressing cathepsin K in the form of a proenzyme in a cell culture from a baculovirus expression system using Sf21 insect cells, followed by incubating for 1 hour at 40° C.^1). Cathepsin K activity was measured based on decomposition of the fluorescent substrate Z-Gly-Pro-Arg-MCA (Peptide Institute, Inc.) in compliance with the method of Aibe, et al.^2). Namely, the decomposition of […] Z-Gly-Pro-Arg-MCA by cathepsin K was measured in 100 mM sodium/potassium phosphate, 1 mM EDTA and 8 mM cysteine at pH 6.0. The reaction was carried out for 30 minutes at 37° C., and stopped by the addition of 2×10^−5 M Calpeptin. After stopping the reaction, fluorescent intensity was measured at an excitation wavelength of 355 nm and measurement wavelength of 460 nm. Inhibition of cathepsin K by the compounds was examined using the reaction system described above.

Human cathepsin B = target: T3, Human cathepsin B (Homo sapiens, UniProt P07858); test: Measurement of cathepsin B inhibitory activity (fluorescent substrate Z-Arg-Arg-MCA); conditions: for IC50: pH 6.0, 30° C., 30 minutes; for B/K (ratio of IC50 cathepsin B to IC50 cathepsin K): selectivity ratio B/K
T3 construct: purchased Calbiochem Corp
Protocol: as §1, with “B” for “L”, “Z-Arg-Arg-MCA” for “Z-Phe-Arg-MCA”, “sodium/potassium phosphate, 1” for “sodium acetate, 5”, “EDTA,” for “EDTA, 4 mM urea,”, “6.0.” for “5.5.”

T1 sequence (P07711 114-333): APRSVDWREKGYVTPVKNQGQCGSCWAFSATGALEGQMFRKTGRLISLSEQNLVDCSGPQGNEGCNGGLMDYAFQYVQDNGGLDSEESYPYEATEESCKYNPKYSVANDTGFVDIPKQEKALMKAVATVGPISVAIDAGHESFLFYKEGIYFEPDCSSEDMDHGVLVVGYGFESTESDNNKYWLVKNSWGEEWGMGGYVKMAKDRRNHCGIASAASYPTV

SMILES | IC50 (Human cathepsin L) [nM] | L/K (ratio of IC50 cathepsin L to IC50 cathepsin K) (Human cathepsin L) | IC50 (Cathepsin K) [nM] | IC50 (Human cathepsin B) [nM] | B/K (ratio of IC50 cathepsin B to IC50 cathepsin K) (Human cathepsin B)
CCCC[C@@H](C=O)NC(=O)[C@H](CC(C)C)NC(=O)OCc1ccccc1 [Reference Example 194, N—[N-[(Phenylmethoxy)carbonyl]-L-leucyl]-L-norleucinal] | 53 | 15 | 3.5 | 40 | 11
CC(C)C[C@H](NC(=O)c1ccco1)C(=O)N[C@H](C=O)C(C)C [Reference Example 196, N—[N-(2-Furanylcarbonyl)-L-leucyl]-L-valinal] | 67 | 35 | 1.9 | 57 | 30
CC(C)[C@@H](C=O)NC(=O)C1(NC(=O)c2ccco2)CCCCC1 [Reference Example 191, N-[[1-[(2-Furanylcarbonyl)amino]cyclohexyl]carbonyl]-L-valinal] | 200 | 370 | 0.54 | 47 | 87
CCCC[C@@H](C=O)NC(=O)[C@H](CC(C)C)NC(=O)N1CCOCC1 [Reference Example 195, N—[N-(4-Morpholinylcarbonyl)-L-leucyl]-L-norleucinal] | 22 | 7.3 | 3 | 13 | 4.3

The next lines start with the values.

IC50 (Human cathepsin L) [nM] | L/K (ratio of IC50 cathepsin L to IC50 cathepsin K) (Human cathepsin L) | IC50 (Cathepsin K) [nM] | IC50 (Human cathepsin B) [nM] | B/K (ratio of IC50 cathepsin B to IC50 cathepsin K) (Human cathepsin B) | SMILES
200 | 50 | 4 | 140 | 35 | CCCC[C@@H](C=O)NC(=O)C1(NC(=O)OCc2ccccc2)CCCCC1 [Reference Example 190, N-[[1-[[(Phenylmethoxy)carbonyl]amino]cyclohexyl]carbonyl]-L-norleucinal] (Cbz-[Ac6c]-[Nle]-aldehyde)
140 | 74 | 1.9 | 110 | 58 | CC(C)C[C@H](NC(=O)OCc1ccccc1)C(=O)N[C@H](C=O)C(C)C [Reference Example 193, N—[N-[(Phenylmethoxy)carbonyl]-L-leucyl]-L-valinal] (Cbz-Leu-Val-aldehyde)
680 | 400 | 1.7 | 390 | 230 | CC(C)[C@@H](C=O)NC(=O)C1(NC(=O)OCc2ccccc2)CCCCC1 [Reference Example 189, N-[[1-[[(Phenylmethoxy)carbonyl]amino]cyclohexyl]carbonyl]-L-valinal] (Cbz-[Ac6c]-Val-aldehyde)
470 | 21 | 22 | 260 | 12 | CCCC[C@@H](C=O)NC(=O)C1(NC(=O)N2CCOCC2)CCCCC1 [Reference Example 192, N-[[1-[(4-Morpholinylcarbonyl)amino]cyclohexyl]carbonyl]-L-norleucinal] ({Morpholide-CO}-[Ac6c]-[Nle]-aldehyde)
